Where two headings read alike, the source gives them in different places.
How the values were obtained:
[1] = molecular target: His-tagged KRAS G12D protein (Homo sapiens (Human), UniProt P01116, G12D); assay: KRAS G12D TR-FRET Assay; format: binding
Method in brief: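 Each incubation ran at room temperature: enzyme with compound for 30 minutes, peptide for one hour, and detection reagents (0.4 nM europium anti-6×His, 5 nM streptavidin-d2) for one hour more. Protein and peptide stocks were each diluted to 20 nM before addition.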

AsPC-1 cells = assay: AsPC-1 CTG Assay (CellTiter-Glo cell viability); format: cell-based, human; conditions: first value of the cell, read-out: G12D/C/V Cell Proliferation CTG (72 h) AsPC-1
Method in brief: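 IC50 values derive from 4-parameter logistic fits of CellTiter-Glo luminescence, expressed relative to DMSO. Compound dilution series were applied to overnight-seeded AsPC-1 or SW620 cells (RPMI 1640, 10% FBS) for 72 h at 37 °C, 5% CO2.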

[2] = system: Phosphorylation of ERK1/2 in AsPC-1 cells; assay: Phospho-ERK1/2 MSD Assay; format: cell-based, human
Method in brief: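 Read-out: MSD electrochemiluminescent detection of phosphorylated ERK1/2 in whole-cell lysates, fitted to a 4-parameter logistic curve for IC50. Prior to lysis, AsPC-1 cells (25,000 per well) received a 2 h compound dose-response at 37 °C.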

MIA PaCa-2 cells = assay: MIA PaCa-2 CTG Assay (CellTiter-Glo cell viability); format: cell-based, human; conditions: second value of the cell
Method in brief: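 IC50 values come from a 4-parameter logistic fit of CellTiter-Glo luminescence, normalized to DMSO control, after 72 h compound exposure at 37° C, 5% CO2. Cells grew in RPMI 1640 plus 10% FBS and were seeded at 1.67E+04 cells/mL one night before dosing.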

[3] = molecular target: GDP-bound KRAS protein (aa 1-169), containing both G12D and C118A amino acid substitutions (Homo sapiens (Human), UniProt P01116, C118A/G12D); assay: KRAS G12D Coupled Nucleotide Exchange Assay; format: biochemical
Sequence of GDP-bound KRAS protein (aa 1-169), containing both G12D and C118A amino acid substitutions (P01116 other isoform, or with tags, fused parts or gaps G12D/C118A): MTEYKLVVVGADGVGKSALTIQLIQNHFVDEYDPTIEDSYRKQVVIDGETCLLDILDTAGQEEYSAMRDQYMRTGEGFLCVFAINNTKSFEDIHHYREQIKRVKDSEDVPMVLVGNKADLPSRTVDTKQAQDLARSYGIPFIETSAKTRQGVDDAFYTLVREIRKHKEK

[4] = read-out: KRAS G12D Binding IC50
[5] = Homo sapiens, ASPC1, 72 h, AsPC-1, 72 h
[6] = Homo sapiens, ASPC1, 2 h, read-out: 2 h p-ERK (AsPC-1 cells), IC50
[7] = Homo sapiens, Mia PaCa-2, 72 h, read-out: G12D/C/V Cell Proliferation CTG (72 h) Mia PaCa-2
[8] = read-out: KRAS G12D Coupled Exchange IC50
[9] = TR-FRET, read-out: KRAS G12D Binding
[10] = Homo sapiens, ASPC1, 72 h, AsPC-1 cells (G12D), 72 h
[11] = Homo sapiens, ASPC1, 2 h, read-out: 2 h p-ERK (AsPC-1 cells)
[12] = Homo sapiens, MIA PaCa-2 cells (G12C), 72 h, read-out: G12D/C/V Cell Proliferation CTG (72 h) MIA PaCa-2
[13] = 2 hours compound pre-incubation, read-out: KRAS G12D Coupled Exchange

Sequence of His-tagged KRAS G12D protein (P01116 other isoform, or with tags, fused parts or gaps G12D): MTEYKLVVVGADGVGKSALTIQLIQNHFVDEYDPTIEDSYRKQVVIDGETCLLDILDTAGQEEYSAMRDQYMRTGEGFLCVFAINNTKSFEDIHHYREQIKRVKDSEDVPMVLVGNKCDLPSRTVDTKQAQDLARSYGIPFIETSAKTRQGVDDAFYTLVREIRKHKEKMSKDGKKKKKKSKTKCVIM

| Structure (SMILES) | IC50 [1, 4] | IC50 (AsPC-1 cells; [5]) | IC50 [2, 6] | IC50 (MIA PaCa-2 cells; [7]) | IC50 [3, 8] | IC50 [1, 9] | IC50 (AsPC-1 cells; [10]) | IC50 [2, 11] | IC50 (MIA PaCa-2 cells; [12]) | IC50 [3, 13] | IC50 (AsPC-1 cells; AsPC-1, 72 h) | IC50 ([2]; 2 h, read-out: 2 h p-ERK (AsPC-1 cells), IC50) | IC50 (MIA PaCa-2 cells; Mia PaCa-2, 72 h, read-out: G12D/C/V Cell Proliferation CTG (72 h) Mia PaCa-2) | IC50 (AsPC-1 cells; Homo sapiens, ASPC1, AsPC-1, 72 h) |
| --- | --- | --- | --- | --- | --- | --- | --- | --- | --- | --- | --- | --- | --- | --- |
| CN1[C@H](COc2nc3c4cnc(c(F)c4n2)-c2c(c(Cl)cc4[nH]ncc24)CCCOC(=O)O[C@@H]2COCCN3C2)C[C@H]2C[C@H]21 [Example 329, (26S)-18-chloro-32-fluoro-4-(((1R,3S,5R)-2-methyl-2-azabicyclo[3.1.0]hexan-3-yl)methoxy)-23,25,28-trioxa-1,3,5,9,14,15-hexaazahexacyclo[24.4.1.1~6,10~.0~2,7~.0~11,19~.0~12,16~]dotriaconta-2,4,6,8,10(32),11,13,16,18-nonaen-24-one] | 14 nM | 402 nM | 206 nM | 530 nM | 7 nM | – | – | – | – | – | – | – | – | – |
| Fc1c2ncc3c(nc(OC[C@@]45CCCN4C[C@H](F)C5)nc13)N1CCCC[C@](F)(COCCCCc3c(Cl)cc4[nH]ncc4c3-2)C1 [Example 398, (26R)-18-chloro-26,32-difluoro-4-(((2R,7aS)-2-fluorotetrahydro-1H-pyrrolo[1,2-a]pyrrol-7a(5H)-yl)methoxy)-24-oxa-1,3,5,9,14,15-hexaazahexacyclo[24.4.1.1~6,10~.0~2,7~.0~11,19~.0~12,16~]dotriaconta-2,4,6,8,10(32),11,13,16,18-nonaene] | – | – | – | – | – | 4 nM | 35 nM | 26.8 nM | 170 nM | 2 nM | – | – | – | – |
| Cc1cc2[nH]ncc2c2c1[C@H]1C[C@H]1CCOC[C@H]1CN(CCO1)c1nc(OC[C@@]34CCCN3C[C@H](F)C4)nc3c(F)c-2ncc13 (single isomer, unassigned) [Example 226] | 7 nM | 412 nM | 77.8 nM | 130 nM | 5 nM | – | – | – | – | – | – | – | – | – |
| O=C1CC/C=C\c2c(Cl)cc3[nH]ncc3c2-c2ncc3c(nc(OC[C@@]45CCCN4C[C@H](F)C5)nc3c2F)N2CCCC(C2)O1 (stereo in doubt) [Example 35, (11Z,17S)-9-Chloro-30-fluoro-24-(((2R,7aS)-2-fluorotetrahydro-1H-pyrrolo[1,2-a]pyrrol-7a(5H)-yl)methoxy)-16-oxa-5,6,21,23,25,29-hexaazahexacyclo[24.3.1.1˜17,21˜.0˜2,10˜.0˜3,7˜.0˜22,27˜]hentriaconta-1(30),2,4,7,9,11,22,24,26,28-decaen-15-one bis(2,2,2-trifluoroacetate)] | 1 nM | – | 19 nM | 90 nM | 1 nM | – | – | – | – | – | – | – | – | 277 nM |
| O[C@]12CCOCCc3c(Cl)cc4[nH]ncc4c3-c3ncc4c(nc(OC[C@@]56CCCN5C[C@H](F)C6)nc4c3F)N3CCC[C@@](C3)(C1)C2 [Example 397, (1S,3R)-10-chloro-32-fluoro-24-(((2R,7aS)-2-fluorotetrahydro-1H-pyrrolo[1,2-a]pyrrol-7a(5H)-yl)methoxy)-6-oxa-13,14,19,23,25,27-hexaazaheptacyclo[25.3.1.1~1,3~.1~18,22~.0~9,17~.0~12,16~.0~21,26~]tritriaconta-9,11,14,16,18(32),19,21,23,25-nonaen-3-ol] | – | – | – | – | – | 4 nM | 12 nM | 1.4 nM | 3 nM | 2 nM | – | – | – | – |
| O=C1COCCc2c(Cl)cc3[nH]ncc3c2-c2ncc3c(nc(OC[C@@]45CCCN4C[C@H](F)C5)nc3c2F)N2CC[C@H]3CCN1[C@H]3C2 [Example 270, (28S,32R)-18-chloro-33-fluoro-4-(((2R,7aS)-2-fluorotetrahydro-1H-pyrrolo[1,2-a]pyrrol-7a(5H)-yl)methoxy)-22-oxa-1,3,5,9,14,15,25-heptaazaheptacyclo[23.5.2.1~6, 10~.0~2,7~.0~11,19~.0~12,16~.0~28,32~]tritriaconta-2,4,6,8,10(33),11,13,16,18-nonaen-24-one] | 7 nM | – | – | – | 2 nM | – | – | – | – | – | 606 nM | 123 nM | 675 nM | – |

Second part, led by results:

| IC50 [1, 4] | IC50 (AsPC-1 cells; [5]) | IC50 [2, 6] | IC50 (MIA PaCa-2 cells; [7]) | IC50 [3, 8] | IC50 [1, 9] | IC50 (AsPC-1 cells; [10]) | IC50 [2, 11] | IC50 (MIA PaCa-2 cells; [12]) | IC50 [3, 13] | IC50 (AsPC-1 cells; AsPC-1, 72 h) | IC50 ([2]; 2 h, read-out: 2 h p-ERK (AsPC-1 cells), IC50) | IC50 (MIA PaCa-2 cells; Mia PaCa-2, 72 h, read-out: G12D/C/V Cell Proliferation CTG (72 h) Mia PaCa-2) | Structure (SMILES) | IC50 (AsPC-1 cells; Homo sapiens, ASPC1, AsPC-1, 72 h) |
| --- | --- | --- | --- | --- | --- | --- | --- | --- | --- | --- | --- | --- | --- | --- |
| 2 nM | 3360 nM | 252 nM | 230 nM | 4 nM | – | – | – | – | – | – | – | – | Cc1cc2[nH]ncc2c2c1CCCn1ccc(n1)[C@H]1CCCN(C1)c1nc(OC[C@@]34CCCN3C[C@H](F)C4)nc3c(F)c-2ncc13 [Example 154, (18S)-31-fluoro-25-(((2R,7aS)-2-fluorotetrahydro-1H-pyrrolo[1,2-a]pyrrol-7a(5H)-yl)methoxy)-9-methyl-5,6,14,22,24,26,30,33-octaazaheptacyclo[25.3.1.1~14,17~.1~18,22~.0~2,10~.0~3,7~.0~23,28~]tritriaconta-1(31),2,4,7,9,15,17(33),23,25,27,29-undecaene] | – |
| 4 nM | 128 nM | 20 nM | 54 nM | 2 nM | – | – | – | – | – | – | – | – | CN1[C@H](COc2nc3c4cnc(c(F)c4n2)-c2c(c(Cl)cc4[nH]ncc24)CCCOC(=O)O[C@@H]2COCCN3C2)C[C@@H]2C[C@@H]21 [Example 330, (26S)-18-chloro-32-fluoro-4-(((1S,3S,5S)-2-methyl-2-azabicyclo[3.1.0]hexan-3-yl)methoxy)-23,25,28-trioxa-1,3,5,9,14,15-hexaazahexacyclo[24.4.1.1~6,10~.0~2,7~.0~11,19~.0~12,16~]dotriaconta-2,4,6,8,10(32),11,13,16,18-nonaen-24-one] | – |
| 4 nM | 139 nM | 9.2 nM | 26 nM | 2 nM | – | – | – | – | – | – | – | – | O=C1OCC[C@@H]2CCc3cc4[nH]ncc4c(c32)-c2ncc3c(nc(OC[C@@]45CCCN4C[C@H](F)C5)nc3c2F)N2CCOC[C@H](C2)O1 [Example 367, (16S,22S)-34-fluoro-8-(((2R,7aS)-2-fluorotetrahydro-1H-pyrrolo[1,2-a]pyrrol-7a(5H)-yl)methoxy)-14,17,19-trioxa-3,7,9,11,28,29-hexaazaheptacyclo[20.9.1.1~2,6~.1~11,16~.0~5,10~.0~25,32~.0~27,31~]tetratriaconta-1(31),2(34),3,5,7,9,25(32),26,29-nonaen-18-one] | – |
| 4 nM | 150 nM | 12.6 nM | 53 nM | 4 nM | – | – | – | – | – | – | – | – | Fc1c2ncc3c(nc(OC[C@@]45CCCN4C[C@H](F)C5)nc13)N1CCCC[C@H](C1)c1cnn(n1)CCCc1c(Cl)cc3[nH]ncc3c1-2 [Example 296, (1R)-10-chloro-33-fluoro-24-(((2R,7aS)-2-fluorotetrahydro-1H-pyrrolo[1,2-a]pyrrol-7a(5H)-yl)methoxy)-4,5,13,14,19,23,25,27,34-nonaazaheptacyclo[25.4.1.1~2,5~.1~18,22~.0~9,17~.0~12,16~.0~21,26~]tetratriaconta-2(34),3,9,11,14,16,18(33),19,21,23,25-undecaene] | – |
| 4 nM | 155 nM | 10 nM | 75 nM | 2 nM | – | – | – | – | – | – | – | – | O=C1OCCCc2c(Cl)cc3[nH]ncc3c2-c2cc3nc(OC[C@@]45CCCN4C[C@H](F)C5)nc(c3cn2)N2CCOC[C@H](C2)O1 [Example 303, (26S)-18-chloro-4-(((2R,7aS)-2-fluorotetrahydro-1H-pyrrolo[1,2-a]pyrrol-7a(5H)-yl)methoxy)-23,25,28-trioxa-1,3,5,9,14,15-hexaazahexacyclo[24.4.1.1~6,10~.0~2,7~.0~11,19~.0~12,16~]dotriaconta-2,4,6,8,10(32),11,13,16,18-nonaen-24-one] | – |
| 4 nM | 350 nM | 36 nM | 200 nM | 2 nM | – | – | – | – | – | – | – | – | C[C@@]12CCCN(C1)c1nc(OC[C@@]34CCCN3C[C@H](F)C4)nc3c(F)c(ncc13)-c1cc(O)cc3ccc(F)c(c13)CCCCC(=O)N2 [Example 47, (15R)-23,32-Difluoro-8-(((2R,7aS)-2-fluorotetrahydro-1H-pyrrolo[1,2-a]pyrrol-7a(5H)-yl)methoxy)-28-hydroxy-15-methyl-3,7,9,11,16-pentaazahexacyclo[20.7.1.1˜2,6˜.1˜11,15˜.0˜5,10˜.0˜26,30˜]dotriaconta-1(30),2(32),3,5,7,9,22,24,26,28-decaen-17-one] | – |

Source: patent US20240294551A1 (AMGEN INC., priority 2022, published 2024)
